Key:
PKR R510Q = PKR R510Q (Homo sapiens, UniProt P30613, R510Q); assay: PKR Mutant Assay, dose response (AC50), PKR R510Q; assay type: biochemical; details: PKR R510Q mutant enzyme
Procedure: (§1) • PKR or PKR mutant enzyme solution was diluted in assay buffer. • 2 μL of test compound was added into wells first, and then 180 μL reaction mix was added. • Reactions mixture with test compound was assembled except for ADP, and plates were stored for 60 minutes at room temperature. • 20 uL ADP was added to start reaction at room temperature and reaction progress was measured as changes in absorbance at 340 nm wavelength at room temperature.
(§2) Test Compound Preparation: • Test compound stock was made at 100× concentration in 100% DMSO (10 mM) • 1 to 3 dilutions were made for 11 points (i.e. 50 μl of first concentration added to 100 μl 100% DMSO to yield 3.33 mM, 50 μl of this added to 100 μl DMSO to yield 1.11 mM, and so forth) • 1 to 100 dilution into assay (2 μl in 200 μl) yielded starting concentration of 100 μM, decreasing 3 fold for 11 points.

PKR R532W = PKR R532W (Homo sapiens, UniProt P30613, R532W); assay: PKR Mutant Assay, dose response (AC50), PKR R532W; assay type: biochemical; details: PKR R532W mutant enzyme
Procedure: as §1, §2

wt PKR [1] = biological target: T1, wt PKR (Homo sapiens, UniProt P30613); assay: PKR Mutant Assay, dose response (AC50), wild type PKR enzyme; assay type: biochemical
Procedure: as §1, §2

wt PKR [2] = biological target: T1, wt PKR; assay: wt PKR cell based assay

T1 sequence (P30613 whole entry): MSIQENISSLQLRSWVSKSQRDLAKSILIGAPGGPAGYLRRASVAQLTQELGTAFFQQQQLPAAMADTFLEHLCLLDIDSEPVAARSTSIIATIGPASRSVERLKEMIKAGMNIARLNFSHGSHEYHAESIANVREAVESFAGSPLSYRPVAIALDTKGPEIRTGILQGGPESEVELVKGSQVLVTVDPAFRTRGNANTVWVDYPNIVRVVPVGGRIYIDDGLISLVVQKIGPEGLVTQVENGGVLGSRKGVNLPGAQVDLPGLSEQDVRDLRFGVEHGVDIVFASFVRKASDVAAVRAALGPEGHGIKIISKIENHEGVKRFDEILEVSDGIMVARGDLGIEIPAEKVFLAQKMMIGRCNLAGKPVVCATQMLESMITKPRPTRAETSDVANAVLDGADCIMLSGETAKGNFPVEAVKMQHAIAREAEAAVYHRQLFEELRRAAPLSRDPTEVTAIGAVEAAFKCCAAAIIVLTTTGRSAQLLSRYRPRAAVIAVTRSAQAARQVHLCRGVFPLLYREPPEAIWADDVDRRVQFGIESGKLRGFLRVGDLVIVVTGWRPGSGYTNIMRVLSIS
PKR R532W, sequence (P30613 whole entry R532W): as the sequence (P30613 whole entry) above, with R532W counted along it
PKR R510Q, sequence (P30613 whole entry R510Q): as the sequence (P30613 whole entry) above, with R510Q counted along it

| SMILES | AC50 (PKR R510Q) [nM] | AC50 (PKR R532W) [nM] | AC50 (wt PKR [1]; wild type PKR enzyme) [nM] | AC50 (wt PKR [2]) [nM] | AC50 (wt PKR [1]; wild type PKR, enzymatic assay) [nM] | AC50 (wt PKR [2]; wild type PKR) [nM] |
| --- | --- | --- | --- | --- | --- | --- |
| Cc1ccccc1CC1(O)CCN(C(=O)c2ccc(NS(=O)(=O)c3cccc4scnc34)cc2)CC1 [Compound 125] | < 100 | < 100 | < 100 | < 100 |  |  |
| CC(F)(F)CCC1(O)CCN(C(=O)c2ccc(NS(=O)(=O)c3cccc4scnc34)cc2F)CC1 [Compound 469, N-(4-(4-(3,3-difluorobutyl)-4-hydroxypiperidine-1-carbonyl)-3-fluorophenyl)benzo[d]thiazole-4-sulfonamide] | 101 to 1000 | 101 to 1000 | 101 to 1000 | 1010 to 10000 |  |  |
| CC(F)(F)CCC1(O)CCN(C(=O)c2ccc(NS(=O)(=O)c3cccc4scnc34)cc2OC(F)F)CC1 [Compound 473, N-(4-(4-(3,3-difluorobutyl)-4-hydroxypiperidine-1-carbonyl)-3-(difluoromethoxy)phenyl)benzo[d]thiazole-4-sulfonamide] | 101 to 1000 | < 100 | < 100 | 101 to 1000 |  |  |
| CC(F)(F)CCC1(O)CCN(C(=O)c2ccc(NS(=O)(=O)c3cccc4nccnc34)cc2F)CC1 [Compound 478, N-(4-(4-(3,3-difluorobutyl)-4-hydroxypiperidine-1-carbonyl)-3-fluorophenyl)quinoxaline-5-sulfonamide] | 101 to 1000 | 101 to 1000 | 101 to 1000 | 101 to 1000 |  |  |
| Cc1cc(C2(O)CCN(C(=O)c3ccc(NS(=O)(=O)c4cccc5scnc45)cc3)CC2)sn1 [Compound 479] | 101 to 1000 | < 100 | < 100 | 101 to 1000 |  |  |
| O=C(c1ccc(NS(=O)(=O)c2cccc3scnc23)cc1)N1CCC(O)(c2scnc2Cl)CC1 [Compound 480, N-(4-(4-(4-chlorothiazol-5-yl)-4-hydroxypiperidine-1-carbonyl)phenyl)benzo[d]thiazole-4-sulfonamide] | 101 to 1000 | < 100 | < 100 | 101 to 1000 |  |  |
| Nc1cnc2c(S(=O)(=O)Nc3ccc(C(=O)N4CCC(O)(CCCC(F)(F)F)CC4)cc3)cccc2n1 [Compound 482, 2-amino-N-(4-(4-hydroxy-4-(4,4,4-trifluorobutyl)piperidine-1-carbonyl)phenyl)quinoxaline-5-sulfonamide] | < 100 | < 100 | < 100 | < 100 |  |  |
| CC(F)(F)CCC1(O)CCN(C(=O)c2ccc(NS(=O)(=O)c3cc(F)cc4sc(N)nc34)cc2F)CC1 [Compound 483, 2-amino-N-(4-(4-(3,3-difluorobutyl)-4-hydroxypiperidine-1-carbonyl)-3-fluorophenyl)-6-fluorobenzo[d]thiazole-4-sulfonamide] | 101 to 1000 | 101 to 1000 | < 100 | 101 to 1000 |  |  |
| CC(F)(F)CCC1(O)CCN(C(=O)c2ccc(NS(=O)(=O)c3cccc4nc(N)cnc34)cc2)CC1 [Compound 486, 2-amino-N-(4-(4-(3,3-difluorobutyl)-4-hydroxypiperidine-1-carbonyl)phenyl)quinoxaline-5-sulfonamide] | 101 to 1000 | < 100 | < 100 | < 100 |  |  |
| O=C(c1ccc(NS(=O)(=O)c2cccc3scnc23)cc1)N1CCC(O)(Cc2nc(Cl)cs2)CC1 [Compound 489, N-(4-(4-((4-chlorothiazol-2-yl)methyl)-4-hydroxypiperidine-1-carbonyl)phenyl)benzo[d]thiazole-4-sulfonamide] |  |  | < 100 | 101 to 1000 |  |  |
| CC(F)(F)CCC1(O)CCN(C(=O)c2ccc(NS(=O)(=O)c3cc(F)cc4sc(N)nc34)cc2C#N)CC1 [Compound 491, 2-amino-N-(3-cyano-4-(4-(3,3-difluorobutyl)-4-hydroxypiperidine-1-carbonyl)phenyl)-6-fluorobenzo[d]thiazole-4-sulfonamide] | 101 to 1000 | 101 to 1000 | 101 to 1000 | 101 to 1000 |  |  |
| CC(F)(F)CCC1(O)CCN(C(=O)c2ccc(NS(=O)(=O)c3cccc4nccnc34)cc2C#N)CC1 [Compound 492] | 101 to 1000 | 101 to 1000 | 101 to 1000 | 101 to 1000 |  |  |
| Nc1cnc2c(S(=O)(=O)Nc3ccc(C(=O)N4CCC(O)(c5cccc(F)c5F)CC4)cc3)cccc2n1 [Compound 493, 2-amino-N-(4-(4-(2,3-difluorophenyl)-4-hydroxypiperidine-1-carbonyl)phenyl)quinoxaline-5-sulfonamide] | < 100 | < 100 | < 100 | < 100 |  |  |
| Cc1nscc1CC1(O)CCN(C(=O)c2ccc(NS(=O)(=O)c3cccc4nccnc34)cc2)CC1 [Compound 497, N-(4-(4-hydroxy-4-((3-methylisothiazol-4-yl)methyl)piperidine-1-carbonyl)phenyl)quinoxaline-5-sulfonamide] | < 100 | < 100 | < 100 | < 100 |  |  |
| O=C(c1ccc(NS(=O)(=O)c2cccc3scnc23)cc1)N1CCC(O)(Cc2cn[nH]c2)CC1 [Compound 498, N-(4-(4-((1H-pyrazol-4-yl)methyl)-4-hydroxypiperidine-1-carbonyl)phenyl)benzo[d]thiazole-4-sulfonamide] | 101 to 1000 | < 100 | < 100 | 101 to 1000 |  |  |
| O=C(c1ccc(NS(=O)(=O)c2cccc3nccnc23)cc1)N1CCC(O)(Cc2cn[nH]c2)CC1 [Compound 499, N-(4-(4-((1H-pyrazol-4-yl)methyl)-4-hydroxypiperidine-1-carbonyl)phenyl)quinoxaline-5-sulfonamide] | 101 to 1000 | < 100 | < 100 | 101 to 1000 |  |  |

| SMILES | AC50 (PKR R510Q) [nM] | AC50 (PKR R532W) [nM] | AC50 (wt PKR [1]; wild type PKR enzyme) [nM] | AC50 (wt PKR [2]) [nM] | AC50 (wt PKR [1]; wild type PKR, enzymatic assay) [nM] | AC50 (wt PKR [2]; wild type PKR) [nM] |
| --- | --- | --- | --- | --- | --- | --- |
| O=C(c1ccc(NS(=O)(=O)c2cccc3nccnc23)cc1)N1CCC(O)(Cc2cc[nH]n2)CC1 [Compound 500, N-(4-(4-((1H-pyrazol-3-yl)methyl)-4-hydroxypiperidine-1-carbonyl)phenyl)quinoxaline-5-sulfonamide] | 1010 to 10000 | 101 to 1000 | 101 to 1000 | 101 to 1000 |  |  |
| O=C(c1ccc(NS(=O)(=O)c2cccc3scnc23)cc1)N1CCC(O)(C2CCC(O)CC2)CC1 (stereo not drawn) [Compound 501, N-(4-(4-hydroxy-4-(4-hydroxycyclohexyl)piperidine-1-carbonyl)phenyl)benzo[d]thiazole-4-sulfonamide] | 101 to 1000 | 101 to 1000 | 101 to 1000 | 101 to 1000 |  |  |
| O=C(c1ccc(NS(=O)(=O)c2cccc3nccnc23)cc1)N1CCC(O)(C2CCC(O)CC2)CC1 (stereo not drawn) [Compound 502, N-(4-(4-hydroxy-4-(4-hydroxycyclohexyl)piperidine-1-carbonyl)phenyl)quinoxaline-5-sulfonamide] | 101 to 1000 | 101 to 1000 | 101 to 1000 | 101 to 1000 |  |  |
| CCn1cc(CC2(O)CCN(C(=O)c3ccc(NS(=O)(=O)c4cccc5nccnc45)cc3)CC2)cn1 [Compound 503] | > 10000 | 101 to 1000 | 101 to 1000 |  |  |  |
| CC1(O)CCC(C2(O)CCN(C(=O)c3ccc(NS(=O)(=O)c4cccc5scnc45)cc3)CC2)CC1 (stereo not drawn) [Compound 504] | 1010 to 10000 | 1010 to 10000 | 101 to 1000 |  |  |  |
| CC1(O)CCC(C2(O)CCN(C(=O)c3ccc(NS(=O)(=O)c4cccc5nccnc45)cc3)CC2)CC1 (stereo not drawn) [Compound 505] | 101 to 1000 | 101 to 1000 | 101 to 1000 |  |  |  |
| CCn1cc(CC2(O)CCN(C(=O)c3ccc(NS(=O)(=O)c4cccc5scnc45)cc3)CC2)cn1 [Compound 506] | > 10000 | 1010 to 10000 | 1010 to 10000 |  |  |  |
| Cn1ccc(CC2(O)CCN(C(=O)c3ccc(NS(=O)(=O)c4cccc5nccnc45)cc3)CC2)n1 [Compound 507] | > 10000 | 101 to 1000 | 101 to 1000 |  |  |  |
| O=C(c1ccc(NS(=O)(=O)c2cccc3scnc23)cc1)N1CCC(O)(c2ncc(Cl)s2)CC1 [Compound 509] | > 10000 | 101 to 1000 | 1010 to 10000 |  |  |  |
| O=C(c1ccc(NS(=O)(=O)c2cccc3scnc23)cc1)N1CCC(O)(c2ccns2)CC1 [Compound 515, N-(4-(4-hydroxy-4-(isothiazol-5-yl)piperidine-1-carbonyl)phenyl)benzo[d]thiazole-4-sulfonamide] | 101 to 1000 |  |  | 101 to 1000 |  |  |
| O=C(c1ccc(NS(=O)(=O)c2cccc3nccnc23)cc1)N1CCC(O)(c2sncc2Cl)CC1 [Compound 516, N-(4-(4-(4-chloroisothiazol-5-yl)-4-hydroxypiperidine-1-carbonyl)phenyl)quinoxaline-5-sulfonamide] | 101 to 1000 |  |  | < 100 |  |  |
| O=C(c1ccc(NS(=O)(=O)c2cccc3nccnc23)cc1)N1CCC(O)(c2ccns2)CC1 [Compound 517] | 101 to 1000 |  |  | 101 to 1000 |  |  |
| CC(C)CC1(OP(=O)(O)O)CCN(C(=O)c2ccc(NS(=O)(=O)c3cccc4scnc34)cc2)CC1 [Compound 524] |  | > 10000 | > 10000 | 1010 to 10000 |  |  |
| CC(C)CC1(OP(=O)(O)O)CCN(C(=O)c2ccc(NS(=O)(=O)c3cccc4nccnc34)cc2)CC1 [Compound 525] | > 10000 |  |  | 101 to 1000 |  |  |
| Cc1cc(C2(O)CCN(C(=O)c3ccc(NS(=O)(=O)c4cccc5scnc45)cc3)CC2)sn1 [Compound 528, N-(4-(4-hydroxy-4-(3-methylisothiazol-5-yl)piperidine-1-carbonyl)phenyl)benzo[d]thiazole-4-sulfonamide] |  |  |  |  | < 100 | 101 to 1000 |
